Assay results taken from patent US7560462B2, “Compounds useful for inhibiting CHK1” (ICOS Corporation, priority 2004, dated 2009).

What was measured:
[1] = test system: Chk1 phosphorylation in HT29 cells; assay: Western blot of Chk1 phosphorylation at serines 317 and 345; assay type: cell-based, human; settings: 20 μM for two h, then 22 h washout
From the text: To determine whether an agent is a Chk1 activator, the phosphorylation state of Chk1 can be measured using phospho-specific antibodies to specific phosphorylation sites on Chk1. […] Liu et al., Genes Dev. 14:1448-59, 2000; Zhao et al., Mol. Cell. Biol. 21:4129-39, 2001; Lopez-Girona et al., Proc. Natl. Acad. Sci. U.S.A. 98:11289-94, 2001; Guo et al., Genes Dev. 14:2745-56, 2000; Gatei et al., J. Biol. Chem. 278:14806-11, 2003; Ng et al., J Biol. Chem. 279(10):8808-19, 2004; Wang et al., Natl Acad Sci USA. 100(26):15387-92, 2003; Stojic et al., Genes Dev. 18(11):1331-44, 2004. These serine sites are phosphorylated by upstream checkpoint kinases, Atm and Atr. Liu et al., Genes Dev. 14:1448-59, 2000; Zhao et al. Mol. Cell. Biol., 21:4129-39, 2001).
The phosphorylation of these sites in response to a candidate Chk1 activator can be monitored by Western blot or immunohistochemistry of tumor cells. […] HT29 cells are treated with 20 μM gemcitabine for two h. The gemcitabine is washed out of the cell growth media and cells are incubated for 22 additional h. Protein lysates are prepared and separated by an SDS-polyacrylamide gel electrophoresis. Proteins are transferred to PVDF membranes and probed with antisera (Cell Signalling) specific for either phosphorylated serine 317 or 345 (Cell Signalling).

[2] = test system: colon tumor cell line xenograft tumors; assay: Animal tumor models (xenograft); assay type: in vivo, Balb/c (nu/nu) mice; settings: 160 mg/kg i.p., xenograft mice
From the text: To test the ability of the Chk1 inhibitors of the invention to enhance the killing of tumors by DNA damaging agents in mice, xenograft tumor models using colon tumor cell lines are established. 5-fluorouracil (5-FU) or gemcitabine can be used as DNA damaging agents; HT29 and Colo205 (human colon carcinoma) and H460 and Calu-6 (nonsmall cell carcinoma) cells can be used to propagate xenograft tumors in 6-8 week old female […] Balb/c (nu/nu) mice. Mice are maintained in a laminar airflow cabinet under pathogen-free conditions and fed sterile food and water ad libitum. Cell lines are grown to subconfluence in RPMI 1640 media supplemented with 10% FBS, 100 U/mL penicillin, 100 μg/mL streptomycin, and 1.5 mM L-glutamine in a 5% CO2 humidified environment. Single cell suspensions are prepared in CMF-PBS, and cell concentration adjusted to 1×10^8 cells/mL. Mice are inoculated subcutaneously (s.c.) on the right flank or right leg with a total of 1×10^7 cells (100 μL). Mice are randomized (5-15 mice/group) into four treatment groups and used when tumors reach a volume of […] (usually 7-11 days post-inoculation). Tumors are measured with vernier calipers and tumor volumes are estimated using the empirically derived formula: tumor volume (cm^3)=tumor length (cm)×tumor width (cm)×tumor depth (cm)/3.3. […] Tumor size is monitored every other day for the duration of the experiment.

[3] = test system: Chk1 serine 296 phosphorylation in HT29 cells; assay: Western blot of Chk1 phosphorylation at serine 296; assay type: cell-based, human
Procedure: Phosphorylation at this site is not inhibited by wortmannin, which inhibits Atm and Atr. Therefore, the phosphorylation of serine 296 is distinct from phosphorylation at serines 317 and 345. […] Therefore, this approach can be used to monitor Chk1 activity in tumors in response to Chk1 activators. Further, this approach can be used to measure inhibition of Chk1 activation by Chk1 inhibitors.
Thus, HT 29 cells are treated with 20 μM gemcitabine for two h. The gemcitabine is washed out of the cell growth media and cells are incubated for 22 additional h. Protein lysates are prepared and separated by an SDS-polyacrylamide gel electrophoresis. Proteins are transferred to polyvinylidene fluoride (PVDF) membranes and probed with antisera (Cell Signalling) specific for phosphorylated serine 296 (Cell Signalling). […] Further, HT29 cells treated with selective Chk1 inhibitors for 15 min show no serine 296 phosphorylation.

| SMILES | phosphorylation of Chk1 serines 317 and 345 [1] | tumor growth [2] | phosphorylation of Chk1 serine 296 ([3]; HT29 cells, 20 μM for two h, then 22 h washout) | inhibition of Chk1 serine 296 phosphorylation ([3]; gemcitabine-stimulated tumor cells) |
| --- | --- | --- | --- | --- |
| Nc1ccn([C@@H]2O[C@H](CO)[C@@H](O)C2(F)F)c(=O)n1 [gemcitabine, 2′,2′ difluoro-2′-deoxycytidine] | results in the phosphorylation of both serines 317 and 345 | delay in tumor growth is observed | results in the phosphorylation of serine 296 | – |
| COC[C@H]1OC(=O)c2coc3c2[C@@]1(C)C1=C(C3=O)[C@@H]2CCC(=O)[C@@]2(C)C[C@H]1OC(C)=O [wortmannin] | – | – | – | not inhibited |
